Experimental findings from ChEMBL document CHEMBL4265990, “Synthesis, anticancer activity and cytotoxicity of galactosylated epothilone B” (Bioorg Med Chem, 2018) are described below.

The subject of assay [1] is MCF7. The assay can be described thus: Antiproliferative activity against human MCF7 cells after 2 days by MTT assay. It is filed as functional, cell-based. Particulars: for IC50: MCF7, 48 h. (Formazan colour is commonly taken as a measure of viable cells.)
Assay [2] deals with MCF7. The assay can be described thus: Antiproliferative activity against human MCF7 cells at 0.01 to 100 nmol/L after 2 days by MTT assay. It is filed as functional.

For `C/C(=C\c1csc(C)n1)[C@@H]1C[C@@H]2O[C@]2(C)CCC[C@H](C)[C@H](OC(=O)CO[C@@H]2O[C@H](CO)[C@H](O)[C@H](O)[C@H]2O)[C@@H](C)C(=O)C(C)(C)[C@@H](O)CC(=O)O1`, the IC50 (in general, the concentration that inhibits the measured activity by half) in the assay with MCF7 [1] amounted to 5730 nM. The Activity in the assay on MCF7 [2] is given as 7.9 - 98.6%.
As for `C/C(=C\c1csc(C)n1)[C@@H]1C[C@@H]2O[C@]2(C)CCC[C@H](C)[C@H](O)[C@@H](C)C(=O)C(C)(C)[C@@H](O)CC(=O)O1` [PATUPILONE], in the assay with MCF7 [1], the Activity result is “Dose-dependent effect” and the IC50 worked out at 38.2 nM. Moreover, in the assay on MCF7 [2], the Activity is 3 - 80.3%.
